{"source": "patent US20250302080A1", "about": "“SWEETNESS AND/OR FLAVOR ENHANCER” (AJINOMOTO CO., INC., priority 2022, published 2025)", "experiment": "Sensory evaluation of sweetness intensity in sucralose solution (Experimental Examples 23-24)", "conditions": "sucralose solution; added alone; 3.0 points or more", "protocol": "A negative control sucralose solution (0.0140 wt % sucralose solution) was prepared by dissolving sucralose in filtered water.\nA sensory evaluation of sweetness intensity was performed for each sample by a panel of four experts according to the following evaluation criteria.\nSweetness intensity was evaluated by 0.0 to 10.0 point based on the following reference samples (negative control (hereinafter referred to as NC) (0.0 point); reference 1 (hereinafter referred to as R1) (3.0 points), reference 2 (hereinafter referred to as R2) (5.0 points); reference 3 (hereinafter referred to as R3) (10.0 points)). The average score (rounded to two decimal places) of each expert panelist was calculated. An average score of 3.0 points or more was considered to be functional. • NC (0.0 point): 0.0140 wt % sucralose solution (solvent: filtered water) • R1 (3.0 points): 0.0164 wt % sucralose solution (solvent: filtered water) • R2 (5.0 points): 0.0180 wt % sucralose solution (solvent: filtered water) • R3 (10.0 points): 0.0220 wt % sucralose solution (solvent: filtered water)\nA sensory evaluation of sweetness intensity was performed for each sample by a panel of four experts according to the same evaluation criteria as in Experimental Example 23."}
{"smiles": "CCCCCCCCCC(=O)O", "note": "[decanoic acid]", "values": [{"measurement": "concentration at which a sweetness-enhancing effect was confirmed", "value": 10, "unit": "ppb"}]}
